US6479435B1, “Diaryl ethers and processes for their preparation and herbicidal and desiccant compositions containing them” (ISK Americas Incorporated, priority 1997, dated 2002)

What was measured:
Format in all cases: in vivo
[1] = test system: green foxtail (Setaria viridis, SETVI); assay: Post-emerge greenhouse herbicide test, phytotoxicity rating; conditions: 14 days after application
Summary of the method: (§1)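 Compounds in acetone with 0.25% v/v non-ionic surfactant were track-sprayed at 187 l/ha over plants at the 2-3 leaf stage, at 63 to 1000 g ai/ha. Pots were bottom-watered. Injury was scored visually 14 days later on a 0-100 scale, where 0 is no damage and 100 is complete plant death.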

[2] = test system: redroot pigweed (Amaranthus retroflexus, AMARE); assay: as above; conditions: 14 days after application
Summary of the method: as §1

[3] = test system: Johnsongrass (Sorghum halepense, SORHA); assay: as above; conditions: 14 days after application
Summary of the method: as §1

[4] = test system: ivyleaf morningglory (Ipomoea hederacea, IPOHE); assay: as above; conditions: 14 days after application
Summary of the method: as §1

[5] = test system: barnyardgrass (Echinochloa crusgalli, ECHCG); assay: as above; conditions: 14 days after application
Summary of the method: as §1

[6] = test system: lambsquarters (Chenopodium album, CHEAL); assay: as above; conditions: 14 days after application
Summary of the method: as §1

[7] = test system: velvetleaf (Abutilon theophrasti, ABUTH); assay: as above; conditions: 14 days after application
Summary of the method: as §1

[8] = test system: large crabgrass (Digitaria sanguinalis, DIGSA); assay: as above; conditions: 14 days after application
Summary of the method: as §1

[9] = test system: green foxtail (Setaria viridis, SETVI); assay: Pre-emerge greenhouse herbicide test, phytotoxicity rating; conditions: 14 days after application, rating scale 0-100
Summary of the method: (§2)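 Seeds sown in sandy loam mix one day before track-sprayer application of compounds in acetone at 125–1000 g ai/ha (187 l/ha), then surface-watered to incorporate and bottom-watered. Visual rating 14 days after application on a 0–100 scale (0 = no damage, 100 = all plants dead).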

[10] = test system: common ragweed (Ambrosia artemisiifolia L., AMBEL); assay: as above; conditions: 14 days after application, rating scale 0-100
Summary of the method: as §2

[11] = test system: redroot pigweed (Amaranthus retroflexus, AMARE); assay: as above; conditions: 14 days after application, rating scale 0-100
Summary of the method: as §2

[12] = test system: Johnsongrass (Sorghum halepense, SORHA); assay: as above; conditions: 14 days after application, rating scale 0-100
Summary of the method: as §2

[13] = test system: ivyleaf morningglory (Ipomoea hederacea, IPOHE); assay: as above; conditions: 14 days after application, rating scale 0-100
Summary of the method: as §2

[14] = test system: barnyardgrass (Echinochloa crusgalli, ECHCG); assay: as above; conditions: 14 days after application, rating scale 0-100
Summary of the method: as §2

[15] = test system: lambsquarters (Chenopodium album, CHEAL); assay: as above; conditions: 14 days after application, rating scale 0-100
Summary of the method: as §2

[16] = test system: velvetleaf (Abutilon theophrasti, ABUTH); assay: as above; conditions: 14 days after application, rating scale 0-100
Summary of the method: as §2

[17] = test system: sicklepod (Cassia obtusifolia, CASOB); assay: as above; conditions: 14 days after application, rating scale 0-100
Summary of the method: as §2

[18] = test system: large crabgrass (Digitaria sanguinalis, DIGSA); assay: as above; conditions: 14 days after application, rating scale 0-100
Summary of the method: as §2

[19] = test system: soybean (Glycine max L., var. Pella 86, SOY); assay: Post-emerge greenhouse test, crop damage rating; conditions: 14 days after application
Summary of the method: as §1

[20] = test system: common ragweed (Ambrosia artemisiifolia L., AMBEL); assay: Post-emerge greenhouse herbicide test, phytotoxicity rating; conditions: 14 days after application
Summary of the method: as §1

[21] = test system: field corn (Zea mays L., var. Dekalb 535, CORN); assay: Pre-emerge greenhouse test, crop damage rating; conditions: 14 days after application, rating scale 0-100
Summary of the method: as §2

[22] = test system: upland rice (Oryza sp., var.Tebonnet, RICE); assay: Pre-emerge greenhouse test, crop damage rating; conditions: 14 days after application, rating scale 0-100
Summary of the method: as §2

[23] = test system: soybean (Glycine max L., var. Pella 86, SOY); assay: Pre-emerge greenhouse test, crop damage rating; conditions: 14 days after application, rating scale 0-100
Summary of the method: as §2

[24] = test system: field corn (Zea mays L., var. Dekalb 535, CORN); assay: Post-emerge greenhouse test, crop damage rating; conditions: 14 days after application
Summary of the method: as §1

[25] = test system: upland rice (Oryza sp., var.Tebonnet, RICE); assay: Post-emerge greenhouse test, crop damage rating; conditions: 14 days after application
Summary of the method: as §1

N#Cc1cccnc1Oc1cc(-n2nnn(CCCF)c2=O)c(Cl)cc1Cl [Compound 6-5]
30: SETVI phytotoxicity rating (0-100) ([1]; 500 g al/ha) | phytotoxicity rating SORHA ([12]; 125 g ai/ha) | phytotoxicity rating DIGSA ([18]; 125 g ai/ha) | SOY crop damage rating (0-100) ([19]; 500 g al/ha) | RICE crop damage rating (0-100) ([25]; 500 g al/ha)
80: AMARE phytotoxicity rating (0-100) ([2]; 500 g al/ha) | CHEAL phytotoxicity rating (0-100) ([6]; 500 g al/ha)
70: phytotoxicity rating SORHA ([12]; 500 g ai/ha) | phytotoxicity rating CASOB ([17]; 125 g ai/ha) | phytotoxicity rating DIGSA ([18]; 500 g ai/ha)
0: SETVI phytotoxicity rating (0-100) ([1]; 63 g al/ha) | SORHA phytotoxicity rating (0-100) ([3]; 63 g al/ha) | IPOHE phytotoxicity rating (0-100) ([4]; 63 g al/ha) | IPOHE phytotoxicity rating (0-100) ([4]; 500 g al/ha) | ECHCG phytotoxicity rating (0-100) ([5]; 63 g al/ha) | ECHCG phytotoxicity rating (0-100) ([5]; 500 g al/ha) | ABUTH phytotoxicity rating (0-100) ([7]; 63 g al/ha) | DIGSA phytotoxicity rating (0-100) ([8]; 63 g al/ha) | phytotoxicity rating SETVI ([9]; 125 g ai/ha) | phytotoxicity rating AMBEL ([10]; 125 g ai/ha) | phytotoxicity rating ECHCG ([14]; 125 g ai/ha) | phytotoxicity rating ECHCG ([14]; 500 g ai/ha) | phytotoxicity rating ABUTH ([16]; 125 g ai/ha) | AMBEL phytotoxicity rating (0-100) ([20]; 63 g al/ha) | AMBEL phytotoxicity rating (0-100) ([20]; 500 g al/ha) | crop damage rating SOY ([23]; 500 g ai/ha) | CORN crop damage rating (0-100) ([24]; 63 g al/ha) | CORN crop damage rating (0-100) ([24]; 500 g al/ha)
10: DIGSA phytotoxicity rating (0-100) ([8]; 500 g al/ha) | crop damage rating RICE ([22]; 500 g ai/ha) | crop damage rating SOY ([23]; 125 g ai/ha)
100: phytotoxicity rating SETVI ([9]; 500 g ai/ha) | phytotoxicity rating AMARE ([11]; 500 g ai/ha) | phytotoxicity rating CHEAL ([15]; 500 g ai/ha)
90: phytotoxicity rating AMARE ([11]; 125 g ai/ha) | phytotoxicity rating CHEAL ([15]; 125 g ai/ha) | phytotoxicity rating ABUTH ([16]; 500 g ai/ha)
20: SORHA phytotoxicity rating (0-100) ([3]; 500 g al/ha) | CHEAL phytotoxicity rating (0-100) ([6]; 63 g al/ha) | ABUTH phytotoxicity rating (0-100) ([7]; 500 g al/ha) | SOY crop damage rating (0-100) ([19]; 63 g al/ha) | crop damage rating CORN ([21]; 125 g ai/ha) | crop damage rating CORN ([21]; 500 g ai/ha) | crop damage rating RICE ([22]; 125 g ai/ha) | RICE crop damage rating (0-100) ([25]; 63 g al/ha)
40: AMARE phytotoxicity rating (0-100) ([2]; 63 g al/ha) | phytotoxicity rating IPOHE ([13]; 125 g ai/ha) | phytotoxicity rating IPOHE ([13]; 500 g ai/ha)
50: phytotoxicity rating AMBEL ([10]; 500 g ai/ha) | phytotoxicity rating CASOB ([17]; 500 g ai/ha)
